Experimental data from patent US8586611B2 (priority 2005, dated 2013).
Where two headings read alike, the source gives them in different places.

How the values were obtained:
Assay type in all cases: in vivo
Plasmopara viticola = assay: Test B: grape downy mildew, spray 24 h after inoculation (disease rating, 100 = 100% disease control)
Outline: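 This is a curative spray test, applied 24 h after inoculation. Compounds in 50/50 acetone–water with 250 ppm Trem 014 surfactant were sprayed to run-off on P. viticola-infected seedlings, with 200 ppm equating to 500 g/ha. Plants were kept 5 days in a 20 °C growth chamber, then 24 h humid, and scored 0–100 for disease control relative to controls.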

Phytophthora infestans [1] = assay: whole plant or invertebrate; settings: for Test C disease rating (100 = 100% disease control, 0 = no disease control): tomato late blight
Phytophthora infestans [2] = assay: whole plant or invertebrate; settings: for Test D disease rating (100 = 100% disease control, 0 = no disease control): tomato late blight
[3] = system: Erysiphe graminis f. sp. tritici; assay: Test E: wheat powdery mildew, spray the day before inoculation (disease rating, 100 = 100% disease control)
Outline: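 Protective test: spores of E. graminis f. sp. tritici dusted on wheat seedlings one day after run-off spraying of test suspension (acetone/water with 250 ppm surfactant; 200 ppm = 500 g/ha). Ratings after 7 days in growth chamber at 20° C, 100 = full control, 0 = none, relative to controls.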

[4] = system: Pseudoperonospora cubensis; assay: Test F: cucumber downy mildew, DMSO/acetone/water test suspension, spray the day before inoculation (disease rating, 100 = 100% disease control)
Description: The test compounds were first dissolved in dimethyl sulfoxide (DMSO) in an amount equal to 4% of the final volume and then suspended at the desired concentration (in ppm) in acetone and purified water (30/70 mix by volume). The resulting test suspensions were then used in test F. Spraying a 250 ppm test suspension on the test plants was the equivalent of a rate of 250 g/ha.
The test suspension was sprayed on cucumber seedlings. The following day the seedlings were inoculated with a spore suspension of Pseudoperonospora cubensis (the causal agent of cucumber downy mildew) and incubated in a saturated atmosphere at 20° C. for 24 h, and then moved to a growth chamber at 20° C. for 6 days, after which disease ratings were made.
Results for Tests A-F are given in Table A. In the table, a rating of 100 indicates 100% disease control and a rating of 0 indicates no disease control (relative to the controls). A dash (-) indicates no test results.

[5] = spray 24 h after inoculation, compounds without asterisk (not 40 or 10 ppm)
[6] = spray the day before inoculation, compounds without asterisk (not 40 or 10 ppm)
[7] = spray 17 h after inoculation, compounds without asterisk (not 40 or 10 ppm)
[8] = DMSO/acetone/water suspension, spray the day before inoculation, compounds without asterisk
[9] = sprayed 24 h after inoculation, unmarked compounds (no asterisk, not 40 or 10 ppm)
[10] = sprayed 17 h after inoculation, unmarked compounds (no asterisk, not 40 or 10 ppm)
[11] = sprayed the day before inoculation, 7 days at 20° C., unmarked compounds (no asterisk, not 40 or 10 ppm)
[12] = sprayed the day before inoculation, unmarked compounds (no asterisk, not 40 or 10 ppm)

Structure (SMILES)	Test B disease rating (100 = 100% disease control, 0 = no disease control) (Plasmopara viticola; [5])	Test C disease rating (100 = 100% disease control, 0 = no disease control) (Phytophthora infestans [1]; [6])	Test D disease rating (100 = 100% disease control, 0 = no disease control) (Phytophthora infestans [2]; [7])	Test E disease rating (100 = 100% disease control, 0 = no disease control) [3, 6]	Test F disease rating (100 = 100% disease control, 0 = no disease control) [4, 8]	Test B disease rating (100 = 100% disease control, 0 = no disease control) (Plasmopara viticola; [9])	Test D disease rating (100 = 100% disease control, 0 = no disease control) (Phytophthora infestans [2]; [10])	Test E disease rating (100 = 100% disease control, 0 = no disease control) [3, 11]	Test C disease rating (100 = 100% disease control, 0 = no disease control) (Phytophthora infestans [1]; [12])	further results
Cc1cc(C(F)(F)F)nn1CC(=O)N1CCC(c2nc(C(=O)N(C)C3CCCc4ccccc43)cs2)CC1 (stereo not drawn) [Compound 188, N-methyl-2-[1-[[5-methyl-3-(trifluoromethyl)-1H-pyrazol-1-yl]acetyl]-4-piperidinyl]-N-(1,2,3,4-tetrahydro-1-naphthalenyl)-4-thiazolecarboxamide]	–	–	–	–	–	–	–	–	–	pest or weed control at 10 ppm (Plasmopara viticola; Plasmopara viticola, 144 h, spray 24 h after inoculation, tested at 10 ppm, read-out: Test B disease rating (100 = 100% disease control, 0 = no disease control)): 99%; pest or weed control at 10 ppm (Phytophthora infestans [1]; Phytophthora infestans, in Solanum lycopersicum, 144 h, read-out: Test C disease rating (100 = 100% disease control, 0 = no disease control)): 100%; pest or weed control at 10 ppm (Phytophthora infestans [2]; Phytophthora infestans, in Solanum lycopersicum, topical, 96 h, read-out: Test D disease rating (100 = 100% disease control, 0 = no disease control)): 99%; pest or weed control at 10 ppm ([3]; Blumeria graminis, topical, 168 h, spray the day before inoculation, tested at 10 ppm, read-out: Test E disease rating (100 = 100% disease control, 0 = no disease control)): 84%; pest or weed control at 10 ppm ([4]; Pseudoperonospora cubensis, topical, 168 h, DMSO/acetone/water suspension, spray the day before inoculation, compound marked as tested at 10 ppm, read-out: Test F disease rating (100 = 100% disease control, 0 = no disease control)): 99%
Cc1ccc(C)c(CC(=O)N2CCN(c3nc(C(=O)N(C)[C@H](C)c4ccccc4)co3)CC2)c1 [compound 50]	55%	100%	99%	0%	100%	–	–	–	–	–
C[C@H](c1ccccc1)N(C)C(=O)c1coc(N2CCN(C(=O)Cc3cc(C(F)(F)F)ccc3Cl)CC2)n1 [compound 51]	20%	100%	96%	0%	100%	–	–	–	–	–
Cc1cccc(CC(=O)N2CCN(c3nc(C(=O)N(C)[C@H](C)c4ccccc4)co3)CC2)c1 [compound 52]	20%	100%	74%	0%	96%	–	–	–	–	–
C[C@H](c1ccccc1)N(C)C(=O)c1coc(N2CCN(C(=O)Cc3cccc(Br)c3)CC2)n1 [compound 54]	11%	100%	69%	0%	50%	–	–	–	–	–
C[C@H](c1ccccc1)N(C)C(=O)c1coc(N2CCN(C(=O)Cc3cccc(C(F)(F)F)c3)CC2)n1 [compound 55]	7%	100%	92%	0%	47%	–	–	–	–	–
Cc1ccc(C)c(CC(=O)N2CCC(c3nc(C(=O)N(C)[C@H](C)c4ccccc4F)cs3)CC2)c1 [compound 57]	100%	100%	94%	50%	99%	–	–	–	–	–
COc1ccc([C@@H](C)N(C)C(=O)c2csc(C3CCN(C(=O)Cc4cc(C)ccc4C)CC3)n2)cc1 [compound 59]	84%	98%	63%	21%	93%	–	–	–	–	–
Cc1ccc(C)c(CC(=O)N2CCC(c3nc(C(=O)N(C)[C@H](C)c4ccc(Cl)cc4)cs3)CC2)c1 [compound 60]	95%	93%	42%	67%	47%	–	–	–	–	–
Cc1ccc([C@@H](C)N(C)C(=O)c2csc(C3CCN(C(=O)Cc4cc(C)ccc4C)CC3)n2)cc1 [compound 62]	92%	92%	24%	29%	43%	–	–	–	–	–
Cc1ccc(C)c(CC(=O)N2CCC(c3nc(C(=O)N(C)[C@H](C)c4ccc(Br)cc4)cs3)CC2)c1 [compound 63]	100%	100%	93%	0%	99%	–	–	–	–	–
Cc1ccc(C)c(CC(=O)N2CCC(c3nc(C(=O)N(C)[C@H](C)c4ccc(F)cc4)cs3)CC2)c1 [compound 64]	100%	100%	95%	92%	93%	–	–	–	–	–
Cc1cc(C)n(CC(=O)N2CCC(c3nc(C(=O)N(C)[C@H](C)c4ccccc4)cs3)CC2)n1 [compound 65]	92%	100%	100%	0%	100%	–	–	–	–	–
COc1ccc(CCNC(=O)c2csc(C3CCN(C(=O)Cc4cc(C)ccc4C)CC3)n2)cc1OC [compound 288]	–	–	–	–	–	73	76	0	–	Test F disease rating (100 = 100% disease control, 0 = no disease control) ([4]; DMSO/acetone/water test suspension, sprayed the day before inoculation, unmarked compounds (no asterisk)): 95
Cc1cc(C(F)(F)F)nn1CC(=O)N1CCC(c2nc(C(=O)N3CC=CCC3)cs2)CC1 [compound 310]	–	–	–	–	–	47	9	0	73	–
Cc1cc(C(F)(F)F)nn1CC(=O)N1CCC(c2nc(C(=O)N3CC=C(c4ccccc4)CC3)cs2)CC1 [compound 311]	–	–	–	–	–	31	0	28	83	–
Cc1cc(C(F)(F)F)nn1CC(=O)N1CCC(c2nc(C(=O)N3CCCC(C)C3)cs2)CC1 (stereo not drawn) [compound 312]	–	–	–	–	–	91	80	0	100	–
Cc1cc(C(F)(F)F)nn1CC(=O)N1CCC(c2nc(C(=O)N3CCCC(C)(C)C3)cs2)CC1 [compound 313]	–	–	–	–	–	98	92	0	99	–
Cc1cc(C(F)(F)F)nn1CC(=O)N1CCC(c2nc(C(=O)NCCc3ccccc3)cs2)CC1 [compound 314]	–	–	–	–	–	98	99	0	100	–
Cc1cc(C(F)(F)F)nn1CC(=O)N1C2CCC1CC(c1nc(C(=O)N(C)[C@@H]3CCCc4ccccc43)cs1)C2 (stereo partly drawn) [compound 316]	–	–	–	–	–	97	97	0	100	–
